The values that follow come from article PMC12254379, “Artesunate induces ferroptosis in diffuse large B-cell lymphoma cells by targeting PRDX1 and PRDX2” (Cell Death & Disease, 2025).

Experiment [1] addresses T1, rhPRDX2 (PRDX2) (Homo sapiens, UniProt P32119).
T1 construct: pET28a His-tagged, expressed in E. coli Rosetta, His-purified; decamer in docking model; endogenous protein of U2932 lysate in the Biotin-ART pull-down
T1 sequence (P32119 2-198): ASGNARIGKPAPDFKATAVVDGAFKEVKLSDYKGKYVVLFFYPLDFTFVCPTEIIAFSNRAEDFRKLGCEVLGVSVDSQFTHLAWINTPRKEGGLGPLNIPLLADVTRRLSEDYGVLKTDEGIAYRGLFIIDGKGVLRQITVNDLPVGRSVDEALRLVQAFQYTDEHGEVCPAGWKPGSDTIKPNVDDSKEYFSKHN
Briefly: CD thermal denaturation. In kind it is binding. Conditions: 10 μM protein, 1 mM ART, 20 mM Tris-HCl.

Experiment [2] addresses T1, rhPRDX2 (PRDX2). Kind of experiment: intrinsic fluorescence titration, Hill plot. In kind it is binding.
The target in experiment [3] is T2, rhPRDX1 (PRDX1) (Homo sapiens, UniProt Q06830).
T2 construct: pET28a His-tagged, expressed in E. coli BL21, His-purified; homodimer in docking model; endogenous protein of U2932 lysate in the Biotin-ART pull-down
T2 sequence (Q06830 2-199): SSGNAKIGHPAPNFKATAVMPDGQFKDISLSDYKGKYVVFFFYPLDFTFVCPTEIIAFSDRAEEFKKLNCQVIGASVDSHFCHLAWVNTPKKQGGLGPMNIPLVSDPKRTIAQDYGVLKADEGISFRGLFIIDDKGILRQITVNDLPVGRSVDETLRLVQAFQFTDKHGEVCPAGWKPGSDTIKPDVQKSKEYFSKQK
Briefly: intrinsic fluorescence titration, Hill plot. In kind it is binding.

Experiment [4] deals with T2, rhPRDX1 (PRDX1). Kind of experiment: H2O2 reduction assay, residual H2O2 kit. In kind it is biochemical. Conditions: 20 μM protein, 30 min preincubation, 100 μM H2O2, RT.

The Kd is the constant that tells how readily two partners part at equilibrium. With `C[C@H]1[C@H](OC(=O)CCC(=O)O)O[C@@H]2O[C@@]3(C)CC[C@H]4[C@H](C)CC[C@@H]1[C@@]24OO3` [Artesunate], the “Tm (without to with ART)” value at rhPRDX2 (PRDX2) [1] was 57 to 61 °C. Further, the Kd was 5.24 µM on rhPRDX2 (PRDX2) [2] and 6.1 µM at rhPRDX1 (PRDX1) [3]. The “H2O2 reduction assay, residual H2O2 kit” value at rhPRDX1 (PRDX1) [4] is “ART suppressed the peroxidase activity of rhPRDX1 and rhPRDX2 in a dose-dependent manner”.
